± gives the standard deviation of the averaged measurements.
Columns and labels:
Danio rerio embryo/larva [1] = assay: max % larvae unhatched across tested concentrations; max tested concentration (log10 uM): 1.60206; higher = more toxic; details: exposure: 6-8 hpf to 5 dpf, scored at 6 dpf
Danio rerio embryo/larva [2] = assay: max % larvae dead across tested concentrations; max tested concentration (log10 uM): 1.60206; higher = more toxic; extreme values may be limits of the assay; details: exposure: 6-8 hpf to 5 dpf, scored at 6 dpf
Danio rerio embryo/larva [3] = assay: max % larvae with any abnormality across tested concentrations; max tested concentration (log10 uM): 1.60206; higher = more toxic; extreme values may be limits of the assay; details: exposure: 6-8 hpf to 5 dpf, scored at 6 dpf
Danio rerio embryo/larva [4] = assay: BMC edema; higher = less potent; details: exposure: 6-8 hpf to 5 dpf, scored at 6 dpf
Experimental: (§1)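 Zebrafish embryos (with chorion) were exposed from 6-8 hpf to each PFAS (8-point half-log series, top concentration up to 100 uM, 0.4% DMSO, sealed plates, 26 C; n = 6 embryos per concentration), rinsed at 5 dpf and scored at 6 dpf by two blinded observers for mortality, hatching and malformations. Endpoint scores are the % of living larvae affected (dead larvae excluded; […]). Curves were fitted with tcpl (cutoff 16%), and the BMC is the concentration at a benchmark response of 21.6%.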

Danio rerio embryo/larva [5] = assay: BMC abnormal position; higher = less potent; details: exposure: 6-8 hpf to 5 dpf, scored at 6 dpf
Experimental: as §1

Danio rerio embryo/larva [6] = assay: BMC craniofacial defects; higher = less potent; details: exposure: 6-8 hpf to 5 dpf, scored at 6 dpf
Experimental: as §1

Danio rerio embryo/larva [7] = assay: BMC swim bladder non-inflation; higher = less potent; details: exposure: 6-8 hpf to 5 dpf, scored at 6 dpf
Outline: (§2)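 Wild-type zebrafish embryos with chorions were put one per well in 200 μL 10% Hanks' at 6–8 hpf, dosed with an 8-point half-log DMSO series (0.4% DMSO final), and held in sealed plates at 26 °C with n = 6 per concentration, then rinsed at 5 dpf and scored at 6 dpf. Two blinded assessors recorded mortality, hatching and malformations as unnormalised percentages of living larvae affected, with mortality given as percent dead. Benchmark concentration was fitted in tcpl with bounded models, keeping the model with the lowest AIC. The benchmark response was set at 1.349 × baseline standard deviation.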

Danio rerio embryo/larva [8] = assay: BMC mortality; max tested concentration (log10 uM): 2; higher = less potent; details: exposure: 6-8 hpf to 5 dpf, scored at 6 dpf
Experimental: as §1

Danio rerio embryo/larva [9] = assay: BMC any abnormality; max tested concentration (log10 uM): 2; higher = less potent; details: exposure: 6-8 hpf to 5 dpf, scored at 6 dpf
Outline: as §2

Danio rerio embryo/larva [10] = assay: max % larvae unhatched across tested concentrations; max tested concentration (log10 uM): 2; higher = more toxic; details: exposure: 6-8 hpf to 5 dpf, scored at 6 dpf
Danio rerio embryo/larva [11] = assay: max % larvae dead across tested concentrations; max tested concentration (log10 uM): 2; higher = more toxic; extreme values may be limits of the assay; details: exposure: 6-8 hpf to 5 dpf, scored at 6 dpf
Danio rerio embryo/larva [12] = assay: max % larvae with any abnormality across tested concentrations; max tested concentration (log10 uM): 2; higher = more toxic; extreme values may be limits of the assay; details: exposure: 6-8 hpf to 5 dpf, scored at 6 dpf
Danio rerio embryo/larva [13] = assay: max % larvae unhatched across tested concentrations; max tested concentration (log10 uM): 1.30103; higher = more toxic; details: exposure: 6-8 hpf to 5 dpf, scored at 6 dpf
Danio rerio embryo/larva [14] = assay: max % larvae with any abnormality across tested concentrations; max tested concentration (log10 uM): 1.30103; higher = more toxic; extreme values may be limits of the assay; details: exposure: 6-8 hpf to 5 dpf, scored at 6 dpf
Danio rerio embryo/larva [15] = assay: BMC spinal defects; higher = less potent; details: max tested concentration (log10 uM): 2; exposure: 6-8 hpf to 5 dpf, scored at 6 dpf
Experimental: as §1

Danio rerio embryo/larva [16] = assay: BMC blood pooling; max tested concentration (log10 uM): 2; higher = less potent; details: exposure: 6-8 hpf to 5 dpf, scored at 6 dpf
Experimental: as §1

Danio rerio embryo/larva [17] = assay: max % larvae dead across tested concentrations; max tested concentration (log10 uM): 1.30103; higher = more toxic; extreme values may be limits of the assay; details: exposure: 6-8 hpf to 5 dpf, scored at 6 dpf
Danio rerio embryo/larva [18] = assay: BMC mortality; max tested concentration (log10 uM): 1.60206; higher = less potent; details: exposure: 6-8 hpf to 5 dpf, scored at 6 dpf
Experimental: as §1

Danio rerio embryo/larva [19] = assay: BMC any abnormality; max tested concentration (log10 uM): 1.60206; higher = less potent; details: exposure: 6-8 hpf to 5 dpf, scored at 6 dpf
Experimental: as §1

Danio rerio embryo/larva [20] = assay: BMC tail defects; max tested concentration (log10 uM): 1.90309; higher = less potent; details: exposure: 6-8 hpf to 5 dpf, scored at 6 dpf
Experimental: as §1

Danio rerio embryo/larva [21] = assay: BMC blood pooling; max tested concentration (log10 uM): 1.90309; higher = less potent; details: exposure: 6-8 hpf to 5 dpf, scored at 6 dpf
Experimental: as §1

Danio rerio embryo/larva [22] = assay: BMC any abnormality; max tested concentration (log10 uM): 1.90309; higher = less potent; details: exposure: 6-8 hpf to 5 dpf, scored at 6 dpf
Experimental: as §1

Danio rerio embryo/larva [23] = assay: max % larvae unhatched across tested concentrations; max tested concentration (log10 uM): 1.90309; higher = more toxic; details: exposure: 6-8 hpf to 5 dpf, scored at 6 dpf
Danio rerio embryo/larva [24] = assay: max % larvae with any abnormality across tested concentrations; max tested concentration (log10 uM): 1.90309; higher = more toxic; extreme values may be limits of the assay; details: exposure: 6-8 hpf to 5 dpf, scored at 6 dpf
Danio rerio embryo/larva [25] = assay: BMC tail defects; max tested concentration (log10 uM): 2; higher = less potent; details: exposure: 6-8 hpf to 5 dpf, scored at 6 dpf
Experimental: as §1

[26] = max tested concentration (log10 uM): 2
[27] = max tested concentration (log10 uM): 1
[28] = max tested concentration (log10 uM): 1.90309
[29] = max tested concentration (log10 uM): 0.477121

SMILES	max % larvae unhatched across tested concentrations (Danio rerio embryo/larva [1])	max % larvae dead across tested concentrations (Danio rerio embryo/larva [2])	max % larvae (Danio rerio embryo/larva [3])	BMC edema (Danio rerio embryo/larva [4]; [26])	BMC swim bladder non-inflation (Danio rerio embryo/larva [7]; [26])	BMC any abnormality (Danio rerio embryo/larva [9])	max % larvae unhatched across tested concentrations (Danio rerio embryo/larva [10])	max % larvae (Danio rerio embryo/larva [12])	further results
FC(F)(F)C(F)(F)C(F)(F)C(F)(F)C(F)(F)C(F)(F)C(F)(F)CCI [1-Iodo-1H,1H,2H,2H-perfluorononane]	0%	16.7%	16.7%	–	–	–	–	–	–
C=C(C)C(=O)OCC(F)(F)C(F)(F)C(F)(F)C(F)(F)C(F)(F)C(F)(F)C(F)(F)F [(Perfluoroheptyl)methyl methacrylate]	0%	0%	0%	–	–	–	–	–	–
O=C(O)C(F)(F)C(F)(F)C(F)(F)C(F)(F)C(F)(F)C(F)(F)C(F)(F)C(F)(F)Cl [9-Chloro-perfluorononanoic acid]	–	–	–	17.5 µM	6.38 µM	8.75 µM	0%	100%	BMC abnormal position (Danio rerio embryo/larva [5]; [26]): 80.3 µM; BMC craniofacial defects (Danio rerio embryo/larva [6]; [26]): 31.1 µM; BMC mortality (Danio rerio embryo/larva [8]): 31.1 µM; max % larvae dead across tested concentrations (Danio rerio embryo/larva [11]): 100%
OCC(F)(F)C(F)(F)C(F)(F)C(F)(F)C(F)(F)C(F)(F)C(F)(F)C(F)(F)C(F)(F)C(F)(F)C(F)(F)F [11:1 Fluorotelomer alcohol]	–	–	–	–	–	–	–	–	max % larvae unhatched across tested concentrations (Danio rerio embryo/larva [13]): 0%; max % larvae (Danio rerio embryo/larva [14]): 8.33%
FC(F)(F)C(F)(F)C(F)(F)C(F)(F)C(F)(F)C(F)(F)C(F)(F)C(F)(F)CCS [2-(Perfluorooctyl)ethanthiol]	0%	0%	10.4%	–	–	–	–	–	–
CO[Si](C)(CCC(F)(F)C(F)(F)C(F)(F)C(F)(F)C(F)(F)C(F)(F)F)OC [Dimethoxymethyl((perfluorohexyl)ethyl)silane]	0%	0%	0%	–	–	–	–	–	–
CCCCCCCCC(F)(F)C(F)(F)C(F)(F)C(F)(F)C(F)(F)C(F)(F)F [1-(Perfluorohexyl)octane]	0%	0%	0%	–	–	–	–	–	–
O=S(=O)(O)C(F)(F)C(F)(F)C(F)(F)C(F)(F)C(F)(F)C(F)(F)C(F)(F)C(F)(F)F [Perfluorooctanesulfonic acid]	–	–	–	–	–	7.48 µM	0%	100%	BMC edema (Danio rerio embryo/larva [4]; [27]): 8.58 µM; BMC abnormal position (Danio rerio embryo/larva [5]; [27]): 9.2 µM; BMC craniofacial defects (Danio rerio embryo/larva [6]; [27]): 8.4 µM; BMC swim bladder non-inflation (Danio rerio embryo/larva [7]; [27]): 8.02 µM; BMC mortality (Danio rerio embryo/larva [8]): 9.38 µM; max % larvae dead across tested concentrations (Danio rerio embryo/larva [11]): 100%
FC(F)(I)C(F)(F)C(F)(F)C(F)(F)C(F)(F)C(F)(F)I [1,6-Diiodoperfluorohexane]	–	–	–	6.97 ± 5.2 µM	6.49 ± 3.8 µM	5.18 ± 4.7 µM	0%	100%	BMC spinal defects (Danio rerio embryo/larva [15]): 7.34 µM; BMC abnormal position (Danio rerio embryo/larva [5]; [26]): 14.9 ± 17 µM; BMC craniofacial defects (Danio rerio embryo/larva [6]; [26]): 26.4 ± 3.9 µM; BMC blood pooling (Danio rerio embryo/larva [16]): 14.5 ± 16 µM
FC(F)(F)C(F)(C(F)(F)F)C(F)(F)C(F)(F)CC1CO1 (configuration not stated) [3-(Perfluoro-3-methylbutyl)-1,2-propenoxide]	0%	0%	0%	–	–	–	–	–	–
O=C(O)C(F)(F)C(F)(F)C(F)(F)C(F)(F)C(F)(F)C(F)(F)C(F)(F)C(F)(F)C(F)(F)C(F)(F)C(F)(F)C(F)(F)C(F)(F)F [Perfluorotetradecanoic acid]	–	–	–	–	–	–	–	–	max % larvae unhatched across tested concentrations (Danio rerio embryo/larva [13]): 0%; max % larvae dead across tested concentrations (Danio rerio embryo/larva [17]): 0%; max % larvae (Danio rerio embryo/larva [14]): 12.5%
CC(C)(C)C(=O)CC(=O)C(F)(F)C(F)(F)C(F)(F)F [(Heptafluorobutanoyl)pivaloylmethane]	–	–	–	25.6 µM	23 µM	23.4 µM	0%	100%	BMC abnormal position (Danio rerio embryo/larva [5]; [26]): 33.1 µM; BMC craniofacial defects (Danio rerio embryo/larva [6]; [26]): 26.6 µM; BMC mortality (Danio rerio embryo/larva [8]): 31.2 µM; max % larvae dead across tested concentrations (Danio rerio embryo/larva [11]): 58.3%
FC(F)(F)C(F)(F)C(F)(F)C(F)(F)C(F)(F)C(F)(F)CCS [2-(Perfluorohexyl)ethanethiol]	0%	0%	16.7%	–	–	–	–	–	–
NCC(F)(F)C(F)(F)C(F)(F)C(F)(F)C(F)(F)C(F)(F)C(F)(F)C(F)(F)F [1H,1H-Perfluorononylamine]	0%	66.7%	100%	–	–	–	–	–	BMC mortality (Danio rerio embryo/larva [18]): 29.9 µM; BMC any abnormality (Danio rerio embryo/larva [19]): 27.2 µM
O=S(=O)(O)C(F)(F)C(F)(F)C(F)(F)C(F)(F)C(F)(F)C(F)(F)F [Perfluorohexanesulfonic acid]	–	–	–	31.7 µM	34.1 µM	30.2 µM	0%	100%	BMC abnormal position (Danio rerio embryo/larva [5]; [26]): 90.6 µM; BMC craniofacial defects (Danio rerio embryo/larva [6]; [26]): 78.9 µM
O=S(=O)(O)C(F)(F)C(F)(F)C(F)(F)C(F)(F)C(F)(F)C(F)(F)C(F)(F)F [Perfluoroheptanesulfonic acid]	–	–	–	–	–	–	–	–	BMC edema (Danio rerio embryo/larva [4]; [28]): 18.5 µM; BMC abnormal position (Danio rerio embryo/larva [5]; [28]): 17.7 µM; BMC craniofacial defects (Danio rerio embryo/larva [6]; [28]): 18.1 µM; BMC swim bladder non-inflation (Danio rerio embryo/larva [7]; [28]): 15.6 µM; BMC tail defects (Danio rerio embryo/larva [20]): 27 µM; BMC blood pooling (Danio rerio embryo/larva [21]): 61 µM; BMC any abnormality (Danio rerio embryo/larva [22]): 15.6 µM; max % larvae unhatched across tested concentrations (Danio rerio embryo/larva [23]): 0%; max % larvae (Danio rerio embryo/larva [24]): 100%
O=S(=O)(OCC(F)(F)F)C(F)(F)C(F)(F)C(F)(F)C(F)(F)F [2,2,2-Trifluoroethyl perfluorobutanesulfonate]	–	–	–	32.7 µM	77 µM	29.4 µM	0%	95.5%	BMC blood pooling (Danio rerio embryo/larva [16]): 35.5 µM; max % larvae dead across tested concentrations (Danio rerio embryo/larva [11]): 0%
COC(=O)C(F)(F)C(F)(F)OC(F)(C(F)(F)F)C(F)(F)OC(F)=C(F)F (configuration not stated) [Methyl perfluoro(3-(1-ethenyloxypropan-2-yloxy)propanoate)]	0%	0%	8.33%	–	–	–	–	–	–
O=S(=O)(O)C(F)(F)C(F)(F)C(F)(F)C(F)(F)C(F)(F)C(F)(F)C(F)(F)C(F)(F)F [Potassium perfluorooctanesulfonate]	–	–	–	4.65 µM	2.81 µM	2.77 µM	0%	100%	BMC spinal defects (Danio rerio embryo/larva [15]): 26 µM; BMC abnormal position (Danio rerio embryo/larva [5]; [26]): 3.99 µM; BMC craniofacial defects (Danio rerio embryo/larva [6]; [26]): 8.25 µM; BMC tail defects (Danio rerio embryo/larva [25]): 27.8 µM; BMC blood pooling (Danio rerio embryo/larva [16]): 10.5 µM
O=C(O)C(F)(F)C(F)(F)C(F)(F)C(F)(F)C(F)(F)C(F)(F)C(F)(F)C(F)(F)C(F)(F)C(F)(F)C(F)(F)C(F)(F)F [Perfluorotridecanoic acid]	–	–	–	–	–	–	–	–	max % larvae unhatched across tested concentrations (Danio rerio embryo/larva [13]): 0%; max % larvae dead across tested concentrations (Danio rerio embryo/larva [17]): 0%; max % larvae (Danio rerio embryo/larva [14]): 16.7%
NS(=O)(=O)C(F)(F)C(F)(F)C(F)(F)C(F)(F)C(F)(F)C(F)(F)F [Perfluorohexanesulfonamide]	–	–	–	–	–	1.45 µM	0%	100%	BMC edema (Danio rerio embryo/larva [4]; [29]): 1.66 µM; BMC abnormal position (Danio rerio embryo/larva [5]; [29]): 2.67 µM; BMC craniofacial defects (Danio rerio embryo/larva [6]; [29]): 2.4 µM; BMC swim bladder non-inflation (Danio rerio embryo/larva [7]; [29]): 2.28 µM
O=S(=O)(Cl)C(F)(F)C(F)(F)C(F)(F)C(F)(F)C(F)(F)C(F)(F)C(F)(F)C(F)(F)F [Perfluoro-1-octanesulfonyl chloride]	–	–	–	29.4 µM	10.4 µM	10.4 µM	0%	100%	BMC spinal defects (Danio rerio embryo/larva [15]): 95.8 µM; BMC abnormal position (Danio rerio embryo/larva [5]; [26]): 92 µM; BMC mortality (Danio rerio embryo/larva [8]): 77.9 µM; max % larvae dead across tested concentrations (Danio rerio embryo/larva [11]): 83.3%

From the supplement of paper PMC11281043
